Laboratory results taken from patent US12622892B2, “Methods for treating endometriosis” (THE TEXAS A&M UNIVERSITY SYSTEM, priority 2020, dated 2026).

Assays:
ESECT-40 cells [1] = assay: Western blotting of growth promoting and proapoptotic gene products, ESECT-40; assay type: cell-based, human
Excerpt: Reagents and Antibodies: Annexin V Dead Cell Apoptosis Kit (V13241) was purchased from Invitrogen. The primary antibodies used were EGFR (4267, 1:1000), Survivin (2808, 1:1000), c-Caspase-3 (9661, 1; 1000), c-PARP (9541, 1:1000) from Cell Signaling Technology (Danvers, MA) and c-Myc (sc-40, 1:500), Bcl-2 (sc-509, 1:500) and Bax (sc-20067, 1:500) from Santacruz Biotechnology (Santacruz, CA), NR4A1 (ab109180, 1:3000) and α-SMA (ab32575, 1:3000) from Abcam (Cambridge, MA), β-Actin (A1978, 1:10000) from Sigma Aldrich Corporation (Milwaukee, WI). COL1A1 (GTX112731, 1:2000), CTGF (GTX124232, 1:2000) and FN (GTX112794, 1:2000) from GeneTex, Inc. (Irvine, CA). Secondary antibodies for rabbit (7074), mouse (7076) and Anti-rabbit Alexa Fluor (4412) purchased from Cell Signaling Technology (Danvers, MA). […]
Western Blotting: ESECT-7 and ESECT-40 cells (2×105) were seeded and allowed to attach for 24 hr, and cells were then treated for 24 hr with either DMSO or different concentrations of DIM-C-pPhOH and DIM-C-pPhOH-3-Cl-5-OCH3. Cells were then lysed and whole-cell lysates were resolved in 10% SDS-PAGE gels and proteins were transferred using PVDF membrane by wet blotting followed by primary and secondary antibody incubation and detected using ECL reagent as described.

NEM cells [2] = assay: Western blotting of growth promoting and proapoptotic gene products, NEM cells; assay type: cell-based, human
ESECT-40 cells [3] = assay: Annexin V staining, ESECT-40; assay type: cell-based, human; conditions: 10 μM DIM-C-pPhOH-3-Cl-5-OCH3, 25 μM DIM-C-pPhOH, FIG. 3B
Method: (§1) Annexin V staining: ESECT-7 and ESECT-40 cells were seeded in Nunc chambered cover glass followed by various drug treatments. The cells were then washed with ice-cold PBS, and 5 μL Alexa Fluor® 488 Annexin V with 100 μg/mL PI (as per the manufacturer's instructions) were added to the cells and incubated for 15 min, and the cells were observed using a Zeiss confocal fluorescence microscope.

NEM cells [4] = assay: Annexin V staining, NEM cells; assay type: cell-based, human; conditions: 25 μM DIM-C-pPhOH, 10 μM DIM-C-pPhOH-3-Cl-5-OCH3, vs DMSO control, FIG. 4C
NEM cells [5] = assay: Cell growth, normal endometrial NEM cells; assay type: cell-based, human; conditions: 24 hr; 15-25 μM DIM-C-pPhOH, 5-10 μM DIM-C-pPhOH-3-Cl-5-OCH3; vs DMSO control; FIG. 4A
Method: (§2) Primary human endometriotic stromal cells from endometriosis patients: Ovarian endometrioma were isolated from endometriosis patients in the proliferative phase following the IRB-approved protocol. Isolated ectopic lesions were digested with collagenase type 3 (300 μg/ml) and DNaseI (40 μg/ml) for 90 min at 37° C., and then tissues were filtered through 150, 100, and 40 μm sieves to isolate endometrial stromal cells. The collected endometrial stromal cells were cultured in DMEM/F12 with 10% FBS plus 1× antibiotic/antimycotic solution and then validated by flow cytometry with a CD90 antibody (a mesenchymal marker). Henceforth, we refer to the stromal cells as ectopic endometrium isolated ovarian endometrioma (ESECT). As the control, primary normal endometrial stromal cells isolated from the biopsy of the eutopic endometrium of normal women (NEM) in the proliferative phase. All cells were incubated at 37° C. in CO2 incubator in an atmosphere of humidified 5% CO2 and 95% air.
(§3) Cell proliferation assay: Patient-derived endometriotic cells ESECT-7 and ESECT-40 were seeded into a 96-well plate, and the cells were then treated for 24 hr with either DMSO or different concentrations of DIM-C-pPhOH and DIM-C-pPhOH-3-Cl-5-OCH3. […] Dimethyl sulfoxide (DMSO) was added and incubated at […] for 10 min, and absorbance was measured at 570 nm.

Ishikawa cells = assay: Expression of fibrosis markers in Ishikawa cells; assay type: cell-based; conditions: 24 hours, FIG. 6D
NR4A1 = biological target: T1, NR4A1 (Mus musculus, UniProt P12813); conditions: C2C12 muscle cells; cited from earlier work
T1 construct: endogenous in cells; host or cells: C2C12 muscle cells
T1 sequence (P12813 whole entry): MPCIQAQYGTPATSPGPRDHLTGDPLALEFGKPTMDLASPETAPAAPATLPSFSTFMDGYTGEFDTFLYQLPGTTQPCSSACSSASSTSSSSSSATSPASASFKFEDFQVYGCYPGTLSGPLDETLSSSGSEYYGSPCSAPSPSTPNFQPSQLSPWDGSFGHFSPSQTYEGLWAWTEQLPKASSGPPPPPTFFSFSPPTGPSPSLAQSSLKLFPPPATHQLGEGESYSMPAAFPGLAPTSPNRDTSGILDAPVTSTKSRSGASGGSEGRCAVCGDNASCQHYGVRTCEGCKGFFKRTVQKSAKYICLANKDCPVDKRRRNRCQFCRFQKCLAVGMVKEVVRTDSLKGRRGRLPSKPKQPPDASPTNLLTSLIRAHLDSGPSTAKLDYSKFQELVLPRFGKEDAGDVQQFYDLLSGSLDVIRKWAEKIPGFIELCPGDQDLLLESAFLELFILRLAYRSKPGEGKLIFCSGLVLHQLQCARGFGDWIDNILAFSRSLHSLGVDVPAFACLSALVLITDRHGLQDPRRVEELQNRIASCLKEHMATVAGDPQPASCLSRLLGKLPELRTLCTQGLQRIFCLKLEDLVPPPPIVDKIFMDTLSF

ESECT-7 cells [6] = assay: Cell proliferation assay (MTT), ESECT-7; assay type: cell-based, human; conditions: 24 hr; 5-10 μM DIM-C-pPhOH-3-Cl-5-OCH3, 15-25 μM DIM-C-pPhOH; FIG. 2C
Method: as §2, §3

ESECT-7 cells [7] = assay: Annexin V staining, ESECT-7; assay type: cell-based, human; conditions: 10 μM DIM-C-pPhOH-3-Cl-5-OCH3, 25 μM DIM-C-pPhOH, FIG. 3A
Method: as §1

ESECT-7 cells [8] = assay: α-SMA immunofluorescence, ESECT-7; assay type: cell-based, human; conditions: vs control, FIG. 5A
Method: Immunofluorescence: ESECT-7 and ESECT-40 cells were seeded in Nunc chambered cover-glass followed by various drug treatments. The cells were fixed with 4% paraformaldehyde in PBS for 20 minutes at 37° C. Cells were then blocked and incubated overnight with primary α-SMA antibody in the buffer (5% bovine serum albumin in PBS) at 4° C., followed by incubation with Alexa Fluor conjugated secondary antibody at a dilution of 1:250 for 2 hours at room temperature. Finally, cells were observed using a Zeiss confocal fluorescence microscope.

Structure (SMILES): COc1cc(C(c2c[nH]c3ccccc23)c2c[nH]c3ccccc23)cc(Cl)c1O [DIM-C-pPhOH-3-Cl-5-OCH3]
- expression of EGFR and cMyc (ESECT-40 cells [1]; 5-10 μM, 24 hr, FIG. 2D): downregulated
- markers of apoptosis (downregulation of survivin and Bcl-2, induced Bax, cleaved PARP and caspase-3) (ESECT-40 cells [1]; Five μM, 24 hours, FIG. 3C): significantly induced several markers of apoptosis
- levels of the cleaved form of PARP and Bax (NEM cells [2]; 25 μM DIM-C-pPhOH, 10 μM DIM-C-pPhOH-3-Cl-5-OCH3, vs DMSO control, FIG. 4D): did not enhance
- cMyc and EGFR expression (NEM cells [2]; 15-25 μM DIM-C-pPhOH, 5-10 μM DIM-C-pPhOH-3-Cl-5-OCH3, vs DMSO control, FIG. 4B): did not decrease
- Annexin V staining (apoptosis) (ESECT-40 cells [3]): significantly induced
- Annexin V staining (NEM cells [4]): did not enhance
- growth of normal endometrial NEM cells (NEM cells [5]): did not suppress the growth
- expression of fibrosis markers (α-SMA, COL1A1, FN, CTGF) (Ishikawa cells): decreased expression of fibrosis markers
- NR4A1 agonist activity, induction of genes involved in glucose uptake (NR4A1): worked as NR4A1 agonists
- growth of ESECT-7 cells (ESECT-7 cells [6]): effectively inhibited the growth
- Annexin V staining (apoptosis) (ESECT-7 cells [7]): significantly induced
- expression of SMA levels (ESECT-7 cells [8]): decreased expression of SMA levels
